Data published in US20260097047A1, “Small molecule inhibitors of the ribosome biogenesis factor NVL2” (Board of Regents, The University of Texas System, priority 2023, published 2026).
Several values for one entry are separate records, joined by “and”; a condition that tells them apart may be missing. Equal entries are not always repeated.

Key:
iHCT116 cells = assay: Growth inhibition of engineered iHCT116 cells; format: cell-based; conditions: Homo sapiens
Excerpt: We recently described an isogenic forward genetic system to rapidly find mutations conferring resistance to compounds with anti-proliferative activity (32). This system uses an engineered colorectal cancer HCT116 cell line (iHCT116) in which the addition of indole acetic acid (IAA) initiates a ubiquitin-mediated degradation of the DNA mismatch repair protein MLH1, thereby providing a mechanism to temporarily increase mutation rates. We applied this strategy to MM017, a dibenzothiazepinone identified in a high-throughput small molecule screen for HCT116 cytotoxicity. […] We exposed barcoded iHCT116 cells, that had previously been cultured either with (Mutagenesis-on) or without IAA (Mutagenesis-off), to increasingly lethal doses of MM017.

[1] = Pharmacokinetic studies in CD-1 female mice, intraperitoneal; format: in vivo, mouse
Procedure: (§1) Plasma exposure was dose-dependent up to 35 mg/kg (IP injection) reaching a maximum concentration at 17.86 μM. These levels exceed the anti-proliferative IC99 of MM927 in cells expressing either human or mouse NVL. In a subsequent pharmacodynamic (PD) study, we asked if we could assess on-target NVL inhibition via a subsequent p53 and/or p21 induction in tumor xenografts in mice treated with MM927. We implanted HCT116 NVL^WT and NVL^R403W cells subcutaneously on either flank of the mice and evaluated the levels of p53 and p21 in either tumor at various time points after IP administration of 35 mg/kg of MM927.
Pharmacokinetic studies were performed by dosing 6-7 week old CD-1 female mice with analog MM927 formulated as 10% DMSO/10% Kolliphor EL/10% Solutal/70% D5W via the intraperitoneal route. Animals were euthanized in groups of three, blood was obtained by cheek bleeds at each time point (0, 10, 30, 90, 180, 360, 960 and 1440 minutes post dose) using the anticoagulant ACD (acidified citrate dextrose) and plasma isolated by centrifugation. For the dose escalation study, mice were dosed with 20 mg/kg, 35 mg/kg, or 60 mg/kg and blood was collected at 10, 180, and 720 minutes post dose. […] The resulting supernatants were evaluated by LC-MS/MS using a Sciex (Framingham, MA) 4500 Triple Quad coupled to a Shimadzu (Columbia, MD) Prominence LC. Briefly, MM927 was detected in multiple reaction monitoring mode (MRM) using the (m+1) transition 488.059/176.1. […] The concentrations of drug in each time-point sample were quantified using Analyst software (Sciex). […] The limit of quantitation (LOQ) was defined as the lowest concentration at which back calculation yielded a concentration within 20% of theoretical and which was above the LOD. Cmax and AUC values were calculated using the noncompartmental analysis tool of Phoenix WinNonLin (Certara/Pharsight, Sunnyvale, CA).

HCT116 NVL^WT tumors = assay: Efficacy study: HCT116 NVL wild type xenografts; format: in vivo, mouse; conditions: 35 mg/kg IP twice a day for 21 days
Procedure: Having established the kinetics of MM927 mediated NVL inhibition in xenograft tumors, we administered 35 mg/kg MM927 IP twice a day for 21 days to mice harboring tumors derived from either HCT116 NVL wild type or NVL^R403W cells. […] Taken together, we concluded that the potent, and bioavailable analog MM927 reduces tumor growth in mouse xenografts by inhibiting NVL without toxicity.
Efficacy study: Five million parental HCT116 cells or HCT116 NVL^R403W in a volume of 0.1 mL were implanted in the right flank. Tumor volumes were measured every 2 to 4 days with calipers. Volume is calculated as [(L*W^2)*3.14]/6. When volumes reached ˜110 mm^3, treatment was started with 35 mg/kg MM927 or vehicle control (0.2 mL/mouse) twice a day for 21 days. Mice were euthanized at the end of the 21-day treatment period or when any tumor reached 2 cm in its largest diameter, in agreement with the approved animal protocol. At the end of treatment, blood and tumor tissue were collected for pharmacokinetic analysis, measurement of complete blood counts, and blood chemistry measurements as described. Serum alanine transaminase and blood urea nitrogen were analyzed using VITROS MicroSlide technology.

[2] = system: p53 and p21 in HCT116 NVL^R403W tumors; assay: Pharmacodynamic study: p53 and p21 in HCT116 NVL^R403W xenograft tumors; format: in vivo, mouse; conditions: 35 mg/kg IP, opposing flank of same mice
Procedure: as §1
(§2) Pharmacodynamic study: Five million parental HCT116 cells or HCT116 NVL^R403W in a volume of 0.1 mL were implanted using a subcutaneous injection in the left and right side of four-to-eight-week-old male and female NSG mice, respectively. Tumor volumes were measured every 2 to 4 days with calipers. When the tumor diameter reached 0.5 cm in diameter, mice were dosed with 35 mg/kg MM927 or vehicle formulated as 10% DMSO/10% Kolliphor EL/10% Solutal/70% D5W and administered via the intraperitoneal route. At each time point (0, 3, 6, 12, 24 hours post dose), tumors were harvested and flash frozen for Western blot analysis for p53 and p21 as described.

[3] = system: p53 and p21 in HCT116 NVL^WT tumors; assay: Pharmacodynamic study: p53 and p21 in HCT116 NVL^WT xenograft tumors; format: in vivo, mouse; conditions: 35 mg/kg IP
Procedure: as §1, §2

## COCCN1C(=O)c2ccccc2Sc2cc(NC(=O)c3ccoc3)ccc21 [MM017]
iHCT116 cells
  IC50: 460 nM

## CC#CCN1C(=O)c2ccc(F)cc2Sc2cc(NC(=O)c3ccc4oc(=O)n(C)c4c3)ccc21 [MM927, N-(10-(But-2-yn-1-yl)-3-fluoro-11-oxo-10,11-dihydrodibenzo[b,f][1,4]thiazepin-7-yl)-3-methyl-2-oxo-2,3-dihydrobenzo[d]oxazole-5-carboxamide]
[1]; 35 mg/kg IP injection, dose escalation
  maximum plasma concentration: 17.86 µM
[1]; female, CD-1, mouse, plasma, 10 mg/kg intraperitoneal (IP) injection, read-out: elimination half-life
  half-life: 1.69 h
[1]; female, CD-1, mouse, plasma, 10 mg/kg intraperitoneal (IP) injection, read-out: peak plasma levels (Cmax)
  Cmax: 2510 ng/mL and 5.15 µM
HCT116 NVL^WT tumors
  endpoint tumor burden, NVL WT: significantly reduced NVL WT tumor burden
  rate of growth of NVL^WT tumors: significantly reduced the rate of growth
[2]
  p53 and p21 in NVL^R403W tumor: no change in p53 and p21
[3]
  p53 and p21 time course in NVL^WT tumor: remained elevated at 12 hours and decreased to basal levels by 24 hours
  p53 protein levels in NVL^WT tumor: increased 3 hours after injection
